What was measured:
Hs 683 = assay: Cytotoxicity against human Hs 683 cells assessed as reduction in cell viability incubated for 24 hrs by CCK8 assay; assay type: functional, cell-based; conditions: Hs 683, 24 h
GL261 = assay: Cytotoxicity against mouse GL261 cells assessed as reduction in cell viability incubated for 24 hrs by CCK8 assay; assay type: functional, cell-based; conditions: GL261, 24 h
U-87 MG = assay: Cytotoxicity against human U87 cells assessed as reduction in cell viability incubated for 24 hrs by CCK8 assay; assay type: functional, cell-based, U-87MG ATCC

Compound | IC50 (Hs 683) | IC50 (GL261) | IC50 (U-87 MG)
O=C(NCCc1ccccc1)c1ccc(N2C[C@@H]3C[C@H](C2)c2cccc(=O)n2C3)c(NS(=O)(=O)c2cccc(Cl)c2)c1 | 55.3 µM | 48.1 µM | 56.2 µM
O=C(C1=C(O)C(=O)N(CCc2c[nH]c3ccccc23)[C@@H]1c1cccc(O)c1)c1ccc(Cl)cc1 | 60.8 µM | 57.3 µM | 54.3 µM
COc1ccc(N2C(=O)C[C@H](C(=O)NC3CCCCC3)[C@H]2c2ccc(F)cc2)cc1 | 84.5 µM | 90.2 µM | 77.9 µM
CCN(C(=O)[C@H](Cc1ccccc1)NS(=O)(=O)c1cccc2nsnc12)c1ccccc1 | 69.8 µM | 60.6 µM | 66.3 µM
O=C(Cc1cccc2ccccc12)NNC(=O)Nc1cccc(Cl)c1 | > 100 µM | > 100 µM | > 100 µM
Cc1ccc(NC(=O)C[C@H]2SC(NC(c3ccc(F)cc3)c3c(O)[nH]c(=O)[nH]c3=O)=NC2=O)cc1C (some centres undefined) | 40.8 µM | 47.9 µM | 46.5 µM
Cc1ccc(CNC(=O)Cn2c(CO)cnc2SCC(=O)Nc2ccc3c(c2)OCO3)cc1 | 41.5 µM | 50.1 µM | 37.8 µM
CC1Oc2ccc(S(=O)(=O)Nc3ccc(CCC(=O)O)cc3)cc2NC1=O (centres undefined) | 41.5 µM | 52.5 µM | 47.4 µM
